# Experimental data: US8193377B2, “(−)-epigallocatechin gallate derivatives for inhibiting proteasome” (The Hong Kong Polytechnic University, priority 2004, dated 2012)
# Legend:
# [1] = biological target: T1, purified rabbit 20s proteasome (Oryctolagus cuniculus, UniProt G1T4Q9); assay: Inhibition of chymotrypsin-like activity of purified 20S proteasome; type: biochemical
# T1 construct: purchased Boston Biochem (Cambridge, Mass.)
# T1 sequence (G1T4Q9 1-263): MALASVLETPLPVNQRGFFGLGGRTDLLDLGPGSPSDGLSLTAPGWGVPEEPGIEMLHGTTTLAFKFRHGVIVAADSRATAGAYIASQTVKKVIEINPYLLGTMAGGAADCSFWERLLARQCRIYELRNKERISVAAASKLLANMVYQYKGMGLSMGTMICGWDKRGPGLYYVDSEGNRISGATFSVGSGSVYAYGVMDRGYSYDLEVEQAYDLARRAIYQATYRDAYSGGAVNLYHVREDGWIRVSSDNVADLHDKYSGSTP
# Protocol: Measurement of the chyrnotrypsin-like activity of the 20s proteasome was performed by incubating 0.5 μg of purified rabbit 20s proteasome with 40 μM fluorogenic peptide substrate, Suc-Leu-Leu-Val-Tyr-AMC, with or without various concentrations of natural and synthetic tea polyphenols as described previously (Nam S et. al.).
# In order to test this hypothesis, proteasome activity was tested both in vitro and in intact Jurkat T cells with either 1 or (−)-EGCG (as a positive control). First, 1 and commercial (−)-EGCG were dissolved in DMSO and their effects on the chymotrypsin-like activity of purified 20S proteasomes were measured. […] In contrast, (−)-EGCG at 10 μM inhibited 80-90% of the proteasomal chymotrypsin-like activity. Therefore, as predicted, 1 outside of a cellular system is not a proteasome inhibitor.
# Up to 25 μM of all protected and unprotected compounds were incubated with a purified 20s proteasome and a fluorogenic substrate for chyrnotrypsin activity for 30 min. The half-maximal inhibitory concentration or IC50 was then determined. […] This is consistent with the results above.
# VA-13 cells [2] = assay: Immunostaining of apoptotic cells with anti-cleaved PARP-FITC; type: cell-based, human; settings: 25 μM, 24 h
# Protocol: Immunostaining of apoptotic cells was performed by addition of a FITC-conjugated polyclonal antibody that recognizes cleaved poly(ADP-ribose) polymerase (PARP) and visualized on an Axiovert 2 5 (Zeiss; Thornwood, N.Y.) microscope. Cells were grown to about 80% confluency in 60 mm dishes. VA-13 cells were then treated with VP-16, 2, or 2a (25 μM) for 24 h. Following treatment, both suspension and adhering cells were collected and washed twice in PBS pH 7.4. The cells were washed between all steps listed below and all washes are 1 min duration with PBS. Cells were then fixed in ice-cold 70% ethanol, permeabilized in 0.1% Triton-X-100 and blocked for 30 min in 1% bovine serum albumin (BSA) at room temperature. Incubation with the primary FITC-conjugated-p85/PARP antibody was for 30 min at 4° C. in the dark with mild shaking. Cell suspension was then transferred to glass slides in the presence of Vector Shield mounting medium with DAPI. Images were captured using AxioVision 4.1 and adjusted using Adobe Photoshop 6.0 software. Cell death was quantified by counting the number of apoptotic cells over the total number of cells in the same field. Data are mean of duplicate experiments ±SD.
# (§1) It has been shown that proteasome inhibition can induce apoptosis in a wide variety of cancer cells, but not in normal, non-transformed cells (An B et al). Jurkat T cells are treated with 25 μM of each of the selected polyphenols and their protected analogs for 24 h to investigate their abilities to induce apoptotic cell death. […] The unprotected 2 induced much less apoptosis (21%), while 25 μM VP-16, used as a positive control, induced 92% apoptosis (FIGS. 10C and 10D). Counterstain with DAPI, which binds to the minor groove in A-T rich regions of DNA, was decreased drastically in apoptotic cells (FIG. 10C), consistent with DNA fragmentation in late stage apoptosis.
# VA-13 cells [3] = assay: Nuclear staining (Hoechst) for apoptotic morphology, VA-13; type: cell-based, human; settings: 25 μM, 24 h
# Protocol: After each drug treatment, both detached and attached VA-13 and WI-38 cells were stained Hoechst 33342 to assess for apoptosis. Briefly, cells were washed 2× in PBS, fixed for 1 h with 70% ethanol at 4° C., washed 3× in PBS, and stained with […] Hoechst for 30 min in the dark at room temperature. Detached cells were plated on a slide and attached cells were visualized on the plate with a fluorescent microscope at 10× or 40× resolution (Zeiss, Germany). Digital Scientific obtained images with AxioVision 4.1 and adjusted using Adobe Photoshop 6.0.
# Next, apoptotic nuclear morphology is examined after treatment with natural (−)-EGCG, 2, and 2a (FIG. 12B). […] A comparison among all the protected analogs was then performed using 25 μM for 24 h. […] All of the protected analogs induced apoptosis in transformed (VA-13), but not normal (WI-38) cells (FIGS. 12B and 12C).
# [4] = tested on: ubiquitinated proteins, Bax, p27, IκBα in Jurkat T cells; assay: Western blot for ubiquitinated proteins and proteasome targets (Bax, p27, IκBα) in Jurkat T cells; type: cell-based, human; settings: 25 μM
# Protocol: (§2) Whole cells extracts were prepared as described previously (An B, Goldfarb R H, Siman R, Dou Q P. Novel dipeptidyl proteasome inhibitors overcome Bc1-2 protective function and selectively accumulate the cyclin-dependent kinase inhibitor p27 and induce apoptosis in transformed, but not normal, human fibroblasts. Cell Death Differ 1998; 5: 1062-75.). Analysis of Bax, IKBa, p27, PAW, and ubiquitinated protein expression were performed using monoclonal or polyclonal antibodies according to previously reported protocols (An B et. al.).
# To determine what effects the synthetic tea analogs had on the proteasome in vivo, Jurkat cells were treated with 25 μM of each synthetic compound for either 4 or 24 h, with (−)-EGCG as a control (FIGS. 9A and 9B). […] This is consistent with the idea that protected analogs are potent inhibitors of the proteasome at an earlier time point and that after 24 h of treatment the ubiquitinated proteins are being depleted by deubiquitinating enzymes. […] The putative ubiquitinated IκBα band is still found in cells treated with 2a, 3a, and 4a (FIG. 9B, Lanes 9, 5, 7). The presumed ubiquinated IκBα band is now absent in the 24 h treatment, possibly due to deubiquitination (FIG. 9B). Actin was used as a loading control in this experiment.
# The pro-apoptotic protein Bax and the cyclin-dependent kinase inhibitor p27 are natural proteasome targets. If the peracetate-protected polyphenols inhibit the intact proteasome activity, we would expect accumulation of Bax and p27 in these cells. To test this idea, Jurkat T cells were treated with both protected and unprotected compounds and lysates were analyzed by Western blot using specific antibodies to Bax and p27 (FIG. 15). After 4 h of treatment, the peracetate-protected analogs 24* and 19*, but not their unprotected analogs, were able to increase accumulation of both Bax (by 3- and 2.5-fold, respectively) and p27 (6- and 11-fold, respectively) (FIG. 15A). After 24 h treatment, Bax levels were increased in cells treated with all of the peracetate-protected compounds (13-, 12-, 40- and 36-fold, respectively, by 24*, 19*, 21* and 23*).
# Jurkat T cells [5] = assay: Trypan blue cell death assay in Jurkat T cells; type: cell-based, human; settings: 24 h
# Jurkat T cells [6] = assay: Western blot for PARP cleavage in Jurkat T cells; type: cell-based, human; settings: 25 μM, 24 h
# Protocol: as §2, §1
# To determine if the cell death observed (FIG. 16) was due to the induction of apoptosis, a similar experiment was performed in Jurkat T cells, followed by measurement of caspase-3 activation and PARP cleavage.
# MCF-7 cells = assay: MTT assay; type: cell-based, human; settings: 24 h
# Protocol: MTT was used to determine effects of polyphenols on overall proliferation of tumor cells. Human breast MCF-7 cells were plated in a 96 well plate and grown to 70-80% confluency, followed by addition of analogs for 24 h. MTT (1 mg/ml) in PBS was then added to wells and incubated at 37° C. for 4 hours to allow for complete cleavage of the tetrazolium salt by metabolically active cells. Next, the MTT was removed and 100 μl of DMSO was added and colorimetric analysis performed using a multilabel plate reader at 560 nm (Victor^3; Perkin Elmer). Absorbance values plotted are the mean from triplicate experiments.
# Treated breast cancer (MCF-7) cells were then treated with 5 or 25 μM of peracetate-protected analogs for 24 h, followed by MTT analysis to determine their effects on cell proliferation. Compound 1 at 25 μM inhibited cellular proliferation by 40% (FIG. 11A).
# LNCaP cells [7] = assay: Apoptotic morphological changes, phase contrast; type: cell-based, human; settings: 25 μM, 24 h
# LNCaP cells [8] = assay: Soft agar colony formation assay; type: cell-based, human; settings: 25 μM once at plating, 21 days
# [9] = biological target: T2, proteasomal chymotrypsin-like activity in Jurkat T cells (Homo sapiens, UniProt P28074); assay: Proteasomal chymotrypsin-like activity in intact Jurkat T cells / their lysates; type: cell-based; settings: 25 μM, 24 h, Jurkat T
# T2 construct: measurement of the proteasomal chymotrypsin-like activity in the prepared lysates; endogenous in cells; host or cells: Jurkat T cells (human leukemia)
# T2 sequence (P28074 60-263): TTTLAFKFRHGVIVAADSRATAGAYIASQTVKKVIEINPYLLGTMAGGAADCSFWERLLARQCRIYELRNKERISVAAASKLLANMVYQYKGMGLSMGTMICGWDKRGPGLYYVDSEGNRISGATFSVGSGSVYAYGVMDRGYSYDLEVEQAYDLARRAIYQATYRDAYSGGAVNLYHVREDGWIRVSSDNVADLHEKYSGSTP
# Protocol: VA-13 or WI-38 cells were grown in 24 well plates (2 ml/well) to 70-80% confluency, followed by 24 h treatment with […] (−)-EGCG, 2, or 2a. […] Suc-Leu-Leu-Val-Tyr-AMC substrate was then added for 2.5 h at 37° C. and the chyrnotrypsin-like activity was measured as described above. Alternatively, cells were treated with each compound at 25 μM for 4 or 24 h, and harvested and lysed. Suc-Leu-Leu-Val-Tyr-AMC (40 μM) was then incubated with the prepared cell lysates for 2.5 h and the chymotrypsin-like activity was measured as described above.
# If 1 converts to (−)-EGCG inside the cells, proteasome inhibition in vivo should be detected. To examine this possibility, human Jurkat cells was treated with 25 μM of 1 or (−)-EGCG for 12 or 24 h, followed by measurement of proteasome activity by using a chymotrypsin-like specific fluorogenic substrate in intact cells (FIG. 6a) or Western blot for ubiquinated proteins (FIG. 6b). […] To analyze the intracellular level of polyubiquitinated proteins, cells were lysed after 12 hours incubation and subjected to Western blotting. […] It is possible that the amount of EGCG generated from 1, and thus its biological activity inside the cells depends on a combination of factors: the relative permeability of 1 into the cells, the amount of esterase enzymes and the amount of anti-oxidants that may be present in the cells at any time.
# To determine whether the unprotected and protected polyphenol analogs could inhibit the proteasomal activity in intact cells, leukemia Jurkat T cells were treated with each compound at 25 μM for 4 and 24 h, followed by collection of cell pellets and measurement of the proteasomal chymotrypsin-like activity in the prepared lysates.
# [10] = tested on: phosphorylated Akt (p-Akt); assay: Western blot for phosphorylated Akt in Jurkat T cells; type: cell-based, human; settings: 25 μM, 24 h
# Protocol: (−)-EGCG and 1 were incubated with Jurkat T cells for 24 h at 5, 10 and 25 μM, followed by Western blot analysis using a specific antibody to phosphorylated Akt (FIG. 7). […] Actin was used as a loading control.
# [11] = Stability test in RPMI 1640 culture medium, HPLC; settings: 37° C.
# Protocol: The stability of 1 with (−)-EGCG in a culture medium (RMPI) is compared, which mimics the body fluid with a pH value around 8. (−)-EGCG or 1 at 0.1 mM was incubated in 1 mL RMPI at 37° C. at indicated times. At different time points, the medium was analyzed by HPLC for the amount of tested compound remaining.
"IC50 ([1]; up to 25 μM, 30 min incubation, read-out: IC50)",Compound,apoptotic cells (p85 cleaved PARP) (VA-13 cells [2]),apoptotic nuclear morphology (VA-13 cells [3]),accumulation of p27 ([4]; 24 h),time course of ubiquitinated protein accumulation ([4]; up to 8 h),cell death (trypan blue) (Jurkat T cells [5]; 25 μM),apoptosis-specific PARP cleavage (Jurkat T cells [6]),inhibition of cellular proliferation (MCF-7 cells; 5 μM),inhibition of cellular proliferation (MCF-7 cells; 25 μM),apoptotic morphological changes (LNCaP cells [7]),colony formation in soft agar (LNCaP cells [8]),"inhibition of proteasomal chymotrypsin-like activity ([1]; 10 μM, purified 20S proteasome)",inhibition of proteasome activity in intact cells [9],level of ubiquitinated proteins ([4]; 12 h),reduction of p-Akt level (densitometry) [10],cell death (Jurkat T cells [5]; 10 μM),"time after which compound disappeared completely ([11]; 0.1 mM in RPMI, pH around 8)",stability relative to (−)-EGCG ([11]; RPMI culture medium)
~9.9 µM,"O=C(O[C@@H]1Cc2c(O)cc(O)cc2O[C@H]1c1cc(O)c(O)c(O)c1)c1cccc(O)c1 (relative stereo) [Compound 2, (2S*,3R*)-trans-5,7-Bis(hydroxy)-2-[3,4,5-tris(hydroxy)phenyl]chroman-3-yl 3-(hydroxy)benzoate]",21%,little or no apoptosis,–,–,–,–,–,–,–,–,–,–,–,–,–,–,–
–,"CC(=O)Oc1cc(OC(C)=O)cc(C(=O)O[C@@H]2Cc3c(OC(C)=O)cc(OC(C)=O)cc3O[C@H]2c2cc(OC(C)=O)c(OC(C)=O)c(OC(C)=O)c2)c1 (relative stereo) [Compound 4a, (2S*,3R*)-trans-5,7-Bis(acetyloxy)-2-[3,4,5-tris(acetyloxy)phenyl]chroman-3-yl 3,5-bis(acetyloxy)benzoate]",–,–,Accumulation of p27,as early as 2 h and lasting up to 8 h,83%,induced apoptosis-specific PARP cleavage,50%,70%,"dramatic round-up, detachment, and cellular fragmentation",most potent inhibitors of colony formation,–,–,–,–,–,–,–
–,"CC(=O)Oc1cc(OC(C)=O)c2c(c1)O[C@H](c1cc(OC(C)=O)c(OC(C)=O)c(OC(C)=O)c1)[C@H](OC(=O)c1cc(OC(C)=O)c(OC(C)=O)c(OC(C)=O)c1)C2 [Compound 1, peracetate (−)-EGCG]",–,–,–,–,–,–,–,40%,mild morphological changes,–,completely inactive,42%,comparable levels of ubiquitinated proteins to that of natural (−)-EGCG,73%,up to 15%,2 h,6 times
